system: Human Whole Blood; test: Cytokine release in human whole blood (ELISA); type: cell-based; details: FIG. 1
Procedure: The most readily available human system to test compound activity on monocytes/macrophages is in whole blood. Various concentrations of compounds of the invention were added as 10× stocks in 50 μl of Ca^++, Mg^++-free Hank's balanced salt solution (HBSS) followed by 50 μl of HBSS into 400 μl of heparinized whole blood obtained from normal volunteers (18-51 years old; 110-230 lb.) into the wells of plastic assay plates, for a total volume of 500 μl/well (final concentration of whole blood was 80%). After a 3-hour incubation with gentle shaking at 37° C. in a 5% CO2 atmosphere, the assay plates were centrifuged at 1000×g for 10 min. at 4° C. and plasma was drawn off and frozen at −80° C. Plasma samples were analyzed for TNF-alpha, IL-10, and IL-12 by ELISA (Genzyme Corp., Cambridge, Mass.). Each assay point was tested in triplicate.
This stimulatory activity can be compared to that of 10 ng/ml endotoxin (or LPS) present in similar incubations in the same assay.

Row | Structure (SMILES) | TNF-alpha release from blood-borne cells
1 | CCCCCCCCCCCCCC(=O)NC(COCC[C@@H](CCCCCCC)OC(=O)CCCCCCCCCCC)COP(=O)([O-])OCCNC(=O)NCCOP(=O)([O-])OCC(COCC[C@@H](CCCCCCC)OC(=O)CCCCCCCCCCC)NC(=O)CCCCCCCCCCCCC.[Na+].[Na+] (stereo partly shown) [ER 119327] | stimulate blood-borne cells to release TNF-alpha
2 | CCCCCC/C=C\CCCC(=O)O[C@H](CCCCCCC)CCOCC(COP(=O)([O-])OCCNC(=O)NCCOP(=O)([O-])OCC(COCC[C@@H](CCCCCCC)OC(=O)CCC/C=C\CCCCCC)NC(=O)CCCCCCCCCCCCC)NC(=O)CCCCCCCCCCCCC.[Na+].[Na+] (stereo partly shown) [ER 119328] | stimulate blood-borne cells to release TNF-alpha

same assay, conditions: TNF-alpha release; compounds tested at 10 μM; compared to 10 ng/ml LPS; 3-hour incubation

Row | Structure (SMILES) | TNF-alpha release in whole blood at 10 μM compound (% of 10 ng/ml LPS response)
3 | CCCCCC/C=C\CCCC(=O)O[C@H](CCCCCCC)CCOCC(COP(=O)([O-])OCCNC(=O)C(Cc1ccc(OCCNC(=O)OC(C)(C)C)cc1)C(=O)NCCOP(=O)([O-])OCC(COCC[C@@H](CCCCCCC)OC(=O)CCC/C=C\CCCCCC)NC(=O)CC(=O)CCCCCCCCCCC)NC(=O)CC(=O)CCCCCCCCCCC.[Na+].[Na+] (stereo partly shown) [compound 019772] | 69 % of LPS
4 | CCCCCCCCCCCC(=O)CC(=O)NC(COCC[C@H](O)CCCCCCC)COP(=O)([O-])OCCNC(=O)NCCOP(=O)([O-])OCC(COCC[C@H](O)CCCCCCC)NC(=O)CC(=O)CCCCCCCCCCC.[Na+].[Na+] (stereo partly shown) [compound 112043] | 0 % of LPS
5 | CCCCCCCCCCCCCCCC(=O)OCC(COP(=O)(O)OCC(O)COP(=O)(O)OCC(COC(=O)CCCCCCCCCCCCCCC)OC(=O)CCCCCCCCCCCCCCC)OC(=O)CCCCCCCCCCCCCCC (stereo not shown) [compound 112071] | 0 % of LPS
6 | CCCCCCC=CCC=CCCCCCCC(=O)OCC(COP(=O)(O)OCC(O)COP(=O)(O)OCC(COC(=O)CCCCCCC=CCC=CCCCCCC)OC(=O)CCCCCCC=CCC=CCCCCCC)OC(=O)CCCCCCC=CCC=CCCCCCC (stereo not shown) [compound 112072] | 0 % of LPS
7 | CCCCCC/C=C\CCCC(=O)O[C@H](CCCCCCC)CCOCC(COP(=O)([O-])OCCNC(=O)NCCOP(=O)([O-])OCC(COCC[C@@H](CCCCCCC)OC(=O)CCC/C=C\CCCCCC)NC(=O)C[C@@H](CCCCCCC)OC(=O)CCC/C=C\CCCCCC)NC(=O)C[C@@H](CCCCCCC)OC(=O)CCC/C=C\CCCCCC.[Na+].[Na+] (stereo partly shown) [compound 112093] | 0 % of LPS
8 | CCCCCC/C=C\CCCC(=O)O[C@H](CCCCCCC)CC(=O)NC(COCC[C@H](O)CCCCCCC)COP(=O)([O-])OCCNC(=O)c1ccccc1C(=O)NCCOP(=O)([O-])OCC(COCC[C@H](O)CCCCCCC)NC(=O)C[C@@H](CCCCCCC)OC(=O)CCC/C=C\CCCCCC.[Na+].[Na+] (stereo partly shown) [compound 112859] | 0 % of LPS
9 | CCCCCC/C=C\CCCC(=O)O[C@H](CCCCCCC)CC(=O)NC(COCC[C@H](O)CCCCCCC)COP(=O)([O-])OCCNC(=O)c1cccc(C(=O)NCCOP(=O)([O-])OCC(COCC[C@H](O)CCCCCCC)NC(=O)C[C@@H](CCCCCCC)OC(=O)CCC/C=C\CCCCCC)c1.[Na+].[Na+] (stereo partly shown) [compound 112860] | 0 % of LPS
10 | CCCCCC/C=C\CCCC(=O)O[C@H](CCCCCCC)CC(=O)NC(COCC[C@H](O)CCCCCCC)COP(=O)([O-])OCCNC(=O)c1ccc(C(=O)NCCOP(=O)([O-])OCC(COCC[C@H](O)CCCCCCC)NC(=O)C[C@@H](CCCCCCC)OC(=O)CCC/C=C\CCCCCC)cc1.[Na+].[Na+] (stereo partly shown) [compound 112861] | 0 % of LPS
11 | CCCCCC/C=C\CCCC(=O)O[C@H](CCCCCCC)CC(=O)NC(COCC[C@H](O)CCCCCCC)COP(=O)([O-])OCCNC(=O)C1OC(C)(C)OC1C(=O)NCCOP(=O)([O-])OCC(COCC[C@H](O)CCCCCCC)NC(=O)C[C@@H](CCCCCCC)OC(=O)CCC/C=C\CCCCCC.[Na+].[Na+] (stereo partly shown) [compound 113634] | 0 % of LPS
12 | CCCCCC/C=C\CCCC(=O)O[C@H](CCCCCCC)CC(=O)NC(COCC[C@H](O)CCCCCCC)COP(=O)([O-])OCCNC(=O)c1cc(O)cc(C(=O)NCCOP(=O)([O-])OCC(COCC[C@H](O)CCCCCCC)NC(=O)C[C@@H](CCCCCCC)OC(=O)CCC/C=C\CCCCCC)c1.[Na+].[Na+] (stereo partly shown) [compound 113635] | 0 % of LPS
13 | CCCCCC/C=C\CCCC(=O)O[C@H](CCCCCCC)CCOCC(COP(=O)([O-])OCCNC(=O)C(Cc1ccc(O)cc1)C(=O)NCCOP(=O)([O-])OCC(COCC[C@@H](CCCCCCC)OC(=O)CCC/C=C\CCCCCC)NC(=O)CC(=O)CCCCCCCCCCC)NC(=O)CC(=O)CCCCCCCCCCC.[Na+].[Na+] (stereo partly shown) [compound 118023] | 63 % of LPS
14 | CCCCCC/C=C\CCCC(=O)O[C@H](CCCCCCC)CCOCC(COP(=O)([O-])OCCNC(=O)CC(=O)NCCOP(=O)([O-])OCC(COCC[C@@H](CCCCCCC)OC(=O)CCC/C=C\CCCCCC)NC(=O)CCCCCCCCCCCCC)NC(=O)CCCCCCCCCCCCC.[Na+].[Na+] (stereo partly shown) [compound 118989] | 159 % of LPS
15 | CCCCCC/C=C\CCCC(=O)O[C@H](CCCCCCC)CCOCC(COP(=O)([O-])OCCNC(=O)CC(=O)NCCOP(=O)([O-])OCC(COCC[C@@H](CCCCCCC)OC(=O)CCC/C=C\CCCCCC)NC(=O)CCCCCCCCCCC)NC(=O)CCCCCCCCCCC.[Na+].[Na+] (stereo partly shown) [compound 118999] | 105 % of LPS
16 | CCCCCC/C=C\CCCC(=O)O[C@H](CCCCCCC)CCOCC(COP(=O)([O-])OCCNC(=O)CC(=O)NCCOP(=O)([O-])OCC(COCC[C@@H](CCCCCCC)OC(=O)CCC/C=C\CCCCCC)NC(=O)CCCCCCCCCCCCCCC)NC(=O)CCCCCCCCCCCCCCC.[Na+].[Na+] (stereo partly shown) [compound 119000] | 60 % of LPS
17 | CCCCCC/C=C\CCCC(=O)O[C@H](CCCCCCC)CCOCC(COP(=O)([O-])OCCNC(=O)CC(=O)NCCOP(=O)([O-])OCC(COCC[C@@H](CCCCCCC)OC(=O)CCC/C=C\CCCCCC)NC(=O)C[C@H](O)CCCCCCCCCCC)NC(=O)C[C@H](O)CCCCCCCCCCC.[Na+].[Na+] (stereo partly shown) [compound 119001] | 113 % of LPS
18 | CCCCCCCCCCCCCC(=O)NC(COCC[C@@H](CCCCCCC)OC(=O)CCCCCCCCCCC)COP(=O)([O-])OCCNC(=O)NCCOP(=O)([O-])OCC(COCC[C@@H](CCCCCCC)OC(=O)CCCCCCCCCCC)NC(=O)CCCCCCCCCCCCC.[Na+].[Na+] (stereo partly shown) [compound 119327] | 165 ± 33 (n = 3) % of LPS
19 | CCCCCC/C=C\CCCC(=O)O[C@H](CCCCCCC)CCOCC(COP(=O)([O-])OCCNC(=O)C(Cc1ccc(OCCNC(=O)OC(C)(C)C)cc1)C(=O)NCCOP(=O)([O-])OCC(COCC[C@@H](CCCCCCC)OC(=O)CCC/C=C\CCCCCC)NC(=O)CCCCCCCCCCCCC)NC(=O)CCCCCCCCCCCCC.[Na+].[Na+] (stereo partly shown) [compound 119329] | 2 ± 2 (n = 2) % of LPS
20 | CCCCCC/C=C\CCCC(=O)O[C@H](CCCCCCC)CCOCC(COP(=O)([O-])OCCNC(=O)C(CCCCNC(=O)OC(C)(C)C)C(=O)NCCOP(=O)([O-])OCC(COCC[C@@H](CCCCCCC)OC(=O)CCC/C=C\CCCCCC)NC(=O)CCCCCCCCCCCCC)NC(=O)CCCCCCCCCCCCC.[Na+].[Na+] (stereo partly shown) [compound 119521] | 103 % of LPS
21 | CCCCCC/C=C\CCCC(=O)O[C@H](CCCCCCC)CCOCC(COP(=O)([O-])OCCNC(=O)C(Cc1ccc(OCCN)cc1)C(=O)NCCOP(=O)([O-])OCC(COCC[C@@H](CCCCCCC)OC(=O)CCC/C=C\CCCCCC)NC(=O)CCCCCCCCCCCCC)NC(=O)CCCCCCCCCCCCC.[Na+].[Na+] (stereo partly shown) [compound 119522] | 129 % of LPS
22 | CCCCCC/C=C\CCCC(=O)O[C@H](CCCCCCC)CCOCC(COP(=O)([O-])OCCNC(=O)C(CCCCN)C(=O)NCCOP(=O)([O-])OCC(COCC[C@@H](CCCCCCC)OC(=O)CCC/C=C\CCCCCC)NC(=O)CCCCCCCCCCCCC)NC(=O)CCCCCCCCCCCCC.[Na+].[Na+] (stereo partly shown) [compound 119523] | 176 % of LPS
23 | CCCCCC/C=C\CCCC(=O)O[C@H](CCCCCCC)CCOCC(COP(=O)(O)OCCNC(=O)C(Cc1ccc(OCCNC(=O)CCCCC(=O)O)cc1)C(=O)NCCOP(=O)(O)OCC(COCC[C@@H](CCCCCCC)OC(=O)CCC/C=C\CCCCCC)NC(=O)CCCCCCCCCCCCC)NC(=O)CCCCCCCCCCCCC (stereo partly shown) [compound 803045] | 65 % of LPS

same assay, conditions: whole blood; vs. % of LPS at 10 ng/ml; read-out: WB ED50 vs LPS@ 10 ng/ml

Row | Structure (SMILES) | EC50 [nM]
24 | CCCCCCCCCCCCCC(=O)NC(COCCC(CCCCCCC)OCCCCCCCCCCCC)COP(=O)(O)OCCCCCCCCOP(=O)(O)OCC(COCCC(CCCCCCC)OCCCCCCCCCCCC)NC(=O)CCCCCCCCCCCCC (mixture of isomers) [compound 804596] | > 10000
25 | CCCCCCCCCCCCCC(=O)N[C@H](COCC[C@@H](CCCCCCC)OC(=O)CCCCCCCCCCC)COP(=O)(O)OCCNC(=O)NCCOP(=O)(O)OC[C@@H](COCC[C@@H](CCCCCCC)OC(=O)CCCCCCCCCCC)NC(=O)CCCCCCCCCCCCC [ER 804678] | 18
26 | CCCCCC/C=C\CCCC(=O)O[C@H](CCCCCCC)CCOCC(COP(=O)([O-])OCCNC(=O)CC(=O)NCCOP(=O)([O-])OCC(COCC[C@@H](CCCCCCC)OC(=O)CCC/C=C\CCCCCC)NC(=O)CCCCCCCCCCCCC)NC(=O)CCCCCCCCCCCCC.[Na+].[Na+] (stereo partly shown) [compound 118989] | 100
27 | CCCCCC/C=C\CCCC(=O)O[C@H](CCCCCCC)CCOCC(COP(=O)([O-])OCCNC(=O)CC(=O)NCCOP(=O)([O-])OCC(COCC[C@@H](CCCCCCC)OC(=O)CCC/C=C\CCCCCC)NC(=O)C[C@H](O)CCCCCCCCCCC)NC(=O)C[C@H](O)CCCCCCCCCCC.[Na+].[Na+] (stereo partly shown) [compound 119001] | 1230
28 | CCCCCCCCCCCCCC(=O)NC(COCC[C@@H](CCCCCCC)OC(=O)CCCCCCCCCCC)COP(=O)([O-])OCCNC(=O)NCCOP(=O)([O-])OCC(COCC[C@@H](CCCCCCC)OC(=O)CCCCCCCCCCC)NC(=O)CCCCCCCCCCCCC.[Na+].[Na+] (stereo partly shown) [compound 119327] | 15

— patent publication US7915238B2, “Immunomodulatory compounds and methods of use thereof” (Eisai R & D Management Co., Ltd., priority 1999, dated 2011)
